Data: patent US10131652B2, “Pyrimidinyloxy benzene derivatives as herbicides” (E. I. DU PONT DE NEMOURS AND COMPANY, priority 2014, dated 2018)

Columns and labels:
Assay type in all cases: in vivo
[1] = test system: rice (Oryza sativa); test: Test C flooded paddy test plant response; details: Flood, 250 g ai/ha; scale of 0 to 100 where 0 is no effect and 100 is complete control; 13 to 15 days
Experimental: (§1) Plant species in the flooded paddy test selected from rice (Oryza sativa), small-flower umbrella sedge (Cyperus difformis), ducksalad (Heteranthera limosa), and bamyardgrass (Echinochloa crus-galli) were grown to the 2-leaf stage for testing. At time of treatment, test pots were flooded to 3 cm above the soil surface, treated by application of test compounds directly to the paddy water, and then maintained at that water depth for the duration of the test. Treated plants and controls were maintained in a greenhouse for 13 to 15 days, after which time all species were compared to controls and visually evaluated. Plant response ratings, summarized in Table C, are based on a scale of 0 to 100 where 0 is no effect and 100 is complete control. A dash (-) response means no test result.

[2] = test system: small-flower umbrella sedge (Cyperus difformis); test: Test C flooded paddy test plant response; details: Flood, 250 g ai/ha; scale of 0 to 100 where 0 is no effect and 100 is complete control; 13 to 15 days
Experimental: as §1

[3] = test system: barnyardgrass (Echinochloa crus-galli); test: Test C flooded paddy test plant response; details: Flood, 250 g ai/ha; scale of 0 to 100 where 0 is no effect and 100 is complete control; 13 to 15 days
Experimental: as §1

[4] = test system: ducksalad (Heteranthera limosa); test: Test C flooded paddy test plant response; details: Flood, 250 g ai/ha; scale of 0 to 100 where 0 is no effect and 100 is complete control; 13 to 15 days
Experimental: as §1

[5] = test system: blackgrass (Alopecurus myosuroides); test: Test B postemergence plant response; details: 0 to 100 scale, 0 no effect, 100 complete control
Source text: (§2) At the same time, plants selected from these crop and weed species and also blackgrass (Alopecurus myosuroides), and galium (catchweed bedstraw, Galium aparine) were planted in pots containing the same blend of loam soil and sand and treated with postemergence applications of test chemicals formulated in the same manner. Plants ranged in height from 2 to 10 cm and were in the one- to two-leaf stage for the postemergence treatment. Treated plants and untreated controls were maintained in a greenhouse for approximately 10 days, after which time all treated plants were compared to untreated controls and visually evaluated for injury. Plant response ratings, summarized in Table B, are based on a 0 to 100 scale where 0 is no effect and 100 is complete control. A dash (-) response means no test result.

[6] = test system: galium (catchweed bedstraw, Galium aparine); test: Test B postemergence plant response; details: 0 to 100 scale, 0 no effect, 100 complete control
Source text: as §2

[7] = test system: wheat (Triticum aestivum); test: Test B pre-/postemergence plant response; details: 0 to 100 scale, 0 no effect, 100 complete control
Source text: as §2, with “Seeds of plant species selected from bamyardgrass (Echinochloa crus-galli), kochia (Kochia scoparia), ragweed (common ragweed, Ambrosia elatior), Italian ryegrass (Lolium multiflorum), large (Lg) crabgrass (Digitaria sanguinalis), giant foxtail (Setaria faberii), momingglory (Ipomoea spp.), pigweed (Amaranthus retroflexus), velvetleaf (Abutilon theophrasti), wheat (Triticum aestivum), and corn (Zea mays) were planted into a blend of loam soil and sand and treated preemergence with a directed soil spray using test chemicals formulated in a non-phytotoxic solvent mixture which included a surfactant. At” for “At”

[8] = test system: corn (Zea mays); test: Test B pre-/postemergence plant response; details: 0 to 100 scale, 0 no effect, 100 complete control
Source text: as §2, with “Seeds of plant species selected from bamyardgrass (Echinochloa crus-galli), kochia (Kochia scoparia), ragweed (common ragweed, Ambrosia elatior), Italian ryegrass (Lolium multiflorum), large (Lg) crabgrass (Digitaria sanguinalis), giant foxtail (Setaria faberii), momingglory (Ipomoea spp.), pigweed (Amaranthus retroflexus), velvetleaf (Abutilon theophrasti), wheat (Triticum aestivum), and corn (Zea mays) were planted into a blend of loam soil and sand and treated preemergence with a directed soil spray using test chemicals formulated in a non-phytotoxic solvent mixture which included a surfactant. At” for “At”

[9] = test system: ragweed (common ragweed, Ambrosia elatior); test: Test B pre-/postemergence plant response; details: for Ragweed plant response rating: 0 to 100 scale (0 no effect, 100 complete control)
Source text: as §2, with “Seeds of plant species selected from bamyardgrass (Echinochloa crus-galli), kochia (Kochia scoparia), ragweed (common ragweed, Ambrosia elatior), Italian ryegrass (Lolium multiflorum), large (Lg) crabgrass (Digitaria sanguinalis), giant foxtail (Setaria faberii), momingglory (Ipomoea spp.), pigweed (Amaranthus retroflexus), velvetleaf (Abutilon theophrasti), wheat (Triticum aestivum), and corn (Zea mays) were planted into a blend of loam soil and sand and treated preemergence with a directed soil spray using test chemicals formulated in a non-phytotoxic solvent mixture which included a surfactant. At” for “At”

[10] = test system: pigweed (Amaranthus retroflexus); test: Test B pre-/postemergence plant response; details: for Pigweed plant response rating: 0 to 100 scale (0 no effect, 100 complete control)
Source text: as §2, with “Seeds of plant species selected from bamyardgrass (Echinochloa crus-galli), kochia (Kochia scoparia), ragweed (common ragweed, Ambrosia elatior), Italian ryegrass (Lolium multiflorum), large (Lg) crabgrass (Digitaria sanguinalis), giant foxtail (Setaria faberii), momingglory (Ipomoea spp.), pigweed (Amaranthus retroflexus), velvetleaf (Abutilon theophrasti), wheat (Triticum aestivum), and corn (Zea mays) were planted into a blend of loam soil and sand and treated preemergence with a directed soil spray using test chemicals formulated in a non-phytotoxic solvent mixture which included a surfactant. At” for “At”

[11] = test system: giant foxtail (Setaria faberii); test: Test B pre-/postemergence plant response; details: for Foxtail, Giant plant response rating: 0 to 100 scale (0 no effect, 100 complete control)
Source text: as §2, with “Seeds of plant species selected from bamyardgrass (Echinochloa crus-galli), kochia (Kochia scoparia), ragweed (common ragweed, Ambrosia elatior), Italian ryegrass (Lolium multiflorum), large (Lg) crabgrass (Digitaria sanguinalis), giant foxtail (Setaria faberii), momingglory (Ipomoea spp.), pigweed (Amaranthus retroflexus), velvetleaf (Abutilon theophrasti), wheat (Triticum aestivum), and corn (Zea mays) were planted into a blend of loam soil and sand and treated preemergence with a directed soil spray using test chemicals formulated in a non-phytotoxic solvent mixture which included a surfactant. At” for “At”

[12] = test system: Italian ryegrass (Lolium multiflorum); test: Test B pre-/postemergence plant response; details: for Ryegrass, Italian plant response rating: 0 to 100 scale (0 no effect, 100 complete control)
Source text: as §2, with “Seeds of plant species selected from bamyardgrass (Echinochloa crus-galli), kochia (Kochia scoparia), ragweed (common ragweed, Ambrosia elatior), Italian ryegrass (Lolium multiflorum), large (Lg) crabgrass (Digitaria sanguinalis), giant foxtail (Setaria faberii), momingglory (Ipomoea spp.), pigweed (Amaranthus retroflexus), velvetleaf (Abutilon theophrasti), wheat (Triticum aestivum), and corn (Zea mays) were planted into a blend of loam soil and sand and treated preemergence with a directed soil spray using test chemicals formulated in a non-phytotoxic solvent mixture which included a surfactant. At” for “At”

[13] = test system: kochia (Kochia scoparia); test: Test B pre-/postemergence plant response; details: for Kochia plant response rating: 0 to 100 scale (0 no effect, 100 complete control)
Source text: as §2, with “Seeds of plant species selected from bamyardgrass (Echinochloa crus-galli), kochia (Kochia scoparia), ragweed (common ragweed, Ambrosia elatior), Italian ryegrass (Lolium multiflorum), large (Lg) crabgrass (Digitaria sanguinalis), giant foxtail (Setaria faberii), momingglory (Ipomoea spp.), pigweed (Amaranthus retroflexus), velvetleaf (Abutilon theophrasti), wheat (Triticum aestivum), and corn (Zea mays) were planted into a blend of loam soil and sand and treated preemergence with a directed soil spray using test chemicals formulated in a non-phytotoxic solvent mixture which included a surfactant. At” for “At”

[14] = test system: barnyardgrass (Echinochloa crus-galli); test: Test B pre-/postemergence plant response; details: for Barnyardgrass plant response rating: 0 to 100 scale (0 no effect, 100 complete control)
Source text: as §2, with “Seeds of plant species selected from bamyardgrass (Echinochloa crus-galli), kochia (Kochia scoparia), ragweed (common ragweed, Ambrosia elatior), Italian ryegrass (Lolium multiflorum), large (Lg) crabgrass (Digitaria sanguinalis), giant foxtail (Setaria faberii), momingglory (Ipomoea spp.), pigweed (Amaranthus retroflexus), velvetleaf (Abutilon theophrasti), wheat (Triticum aestivum), and corn (Zea mays) were planted into a blend of loam soil and sand and treated preemergence with a directed soil spray using test chemicals formulated in a non-phytotoxic solvent mixture which included a surfactant. At” for “At”

[15] = 31 g ai/ha, Preemergence, 0 to 100 scale where 0 is no effect and 100 is complete control
[16] = 125 g ai/ha, postemergence, 0 to 100 scale, 0 no effect, 100 complete control
[17] = 31 g ai/ha, Postemergence, 0 to 100 scale, 0 no effect, 100 complete control
[18] = Preemergence, 125 g ai/ha, 0 to 100 scale where 0 is no effect and 100 is complete control

Row | Compound | Rice plant response rating [1] | Sedge, Umbrella plant response rating [2] | Barnyardgrass plant response rating [3] | Ducksalad plant response rating [4] | Plant response rating, Blackgrass ([5]; 31 g ai/ha, Postemergence) | Plant response rating, Blackgrass ([5]; 125 g ai/ha, postemergence) | Plant response rating, Galium ([6]; 125 g ai/ha, postemergence) | Plant response rating, Wheat ([7]; 125 g ai/ha, postemergence) | Plant response rating, Corn ([8]; 31 g ai/ha, Postemergence) | Plant response rating, Corn ([8]; 125 g ai/ha, postemergence) | Plant response rating, Ragweed [9, 16] | Plant response rating, Pigweed [10, 16] | Plant response rating, Foxtail, Giant [11, 17] | Plant response rating, Foxtail, Giant [11, 16] | Plant response rating, Ryegrass, Italian [12, 16] | Plant response rating, Kochia [13, 16] | Plant response rating, Barnyardgrass [14, 17] | Plant response rating, Barnyardgrass [14, 16] | other results
1 | FC(F)(F)c1cc(-c2c(Cl)cccc2Oc2ncc(Br)cn2)on1 [Compound 127] | 60 | 100 | 50 | 100 | 30 | 90 | 100 | 20 | 20 | 50 | 50 | 100 | 50 | 90 | 90 | 90 | 30 | 100 | Plant response rating, Ragweed [9, 15]: 10; Ragweed plant response rating ([9]; Preemergence, 125 g ai/ha): 30; Plant response rating, Pigweed [10, 15]: 100; Pigweed plant response rating ([10]; Preemergence, 125 g ai/ha): 100; Plant response rating, Foxtail, Giant [11, 15]: 100; Foxtail, Giant plant response rating ([11]; Preemergence, 125 g ai/ha): 100; Plant response rating, Ryegrass, Italian [12, 15]: 30; Ryegrass, Italian plant response rating ([12]; Preemergence, 125 g ai/ha): 90; Plant response rating, Kochia [13, 15]: 80; Kochia plant response rating ([13]; Preemergence, 125 g ai/ha): 90; Plant response rating, Barnyardgrass [14, 15]: 70; Barnyardgrass plant response rating ([14]; Preemergence, 125 g ai/ha): 90
2 | Cc1nc(-c2ccccc2Oc2ncc(Cl)cn2)co1 [Compound 70] | 0 | 0 | 0 | 0 | 0 | 0 | 0 | 0 | 0 | 0 | 0 | 20 | 0 | 0 | 0 | 0 | 0 | 0 | Plant response rating, Galium ([6]; 31 g ai/ha, Postemergence): 0; Plant response rating, Wheat ([7]; 31 g ai/ha, Postemergence): 0; Plant response rating, Ragweed [9, 17]: 0; Ragweed plant response rating ([9]; Preemergence, 31 g ai/ha): 0; Plant response rating, Ragweed [9, 18]: 0; Plant response rating, Pigweed [10, 17]: 10; Pigweed plant response rating ([10]; Preemergence, 31 g ai/ha): 0; Plant response rating, Pigweed [10, 18]: 0; Foxtail, Giant plant response rating ([11]; Preemergence, 31 g ai/ha): 0; Plant response rating, Foxtail, Giant [11, 18]: 0; Plant response rating, Ryegrass, Italian [12, 17]: 0; Ryegrass, Italian plant response rating ([12]; Preemergence, 31 g ai/ha): 0; Plant response rating, Ryegrass, Italian [12, 18]: 0; Plant response rating, Kochia [13, 17]: 0; Kochia plant response rating ([13]; Preemergence, 31 g ai/ha): 0; Plant response rating, Kochia [13, 18]: 0; Barnyardgrass plant response rating ([14]; Preemergence, 31 g ai/ha): 0; Plant response rating, Barnyardgrass [14, 18]: 0
